# From patent US8486974B2 (priority 2007, dated 2013)
# Entries after “also recorded” stand apart in the source; their conditions may differ.
# Assays:
# [1] = Hydrolysis in rabbit plasma; format: in vitro ADME
# Experimental: Pooled plasma/serum solutions (4 ml) were prepared to the correct strength by dilution of plasma with phosphate buffer pH 7.4 (e.g. for a 10% solution 0.4 ml of plasma/serum was added to 3.6 ml of phosphate buffer pH 7.4). Following equilibration of the plasma/serum sample at 37±0.5° C. 100 μl of a stock solution of test compound in acetonitrile (1×10^−4 M) was added and 250 μl aliquots were removed at specified time intervals. Samples were transferred to 1.5 ml Eppendorf tubes containing 500 μl of a 2% w/v solution of nSO4.7H2O (water:acetonitrile, 1:1). Tubes were vortexed for 2 minutes, then centrifuged at 10,000 rpm for 3 minutes at room temperature. Supernatant was aspirated off and analysed by HPLC. The concentration of test compound and metabolites were determined with reference to calibration curves run on that day in the same concentration range and under the same experimental conditions. […] The metabolic fate of the esters under these conditions was also determined by RPHPLC by measuring the concentration of drug and metabolites in the medium as a function of time. […] The BuChE activity of plasma and microsomal samples was determined using the Ellman assay (Ellman et al., 1964). […]
# [2] = Hydrolysis in the presence of human liver microsomes (HLM), with or without esterase inhibitors; format: in vitro ADME
# [3] = Hydrolysis in the presence of human intestinal microsomes (HIM), with or without esterase inhibitors; format: in vitro ADME; details: 0.1 mM, pH 7.4
# [4] = system: human platelet aggregation to arachidonic acid; experiment: Human platelet aggregation to arachidonic acid in platelet rich plasma; format: cell-based
# Experimental: (§1) Blood was collected from healthy volunteers who had not taken any drugs known to affect platelet function for at least 14 days prior to the study. Platelet rich plasma (PRP) and washed platelet suspensions (2.5×10^8 platelets/ml) were prepared from blood as previously described.
# (§2) Platelet aggregation was measured by light aggregometry as previously described. Briefly, PRP and washed platelet samples (2.5×10^8/ml) were placed in a whole blood ionized calcium lumi-aggregometer (Chronolog Corp., Havertown, Pa., U.S.A), and (BIO/DATA CORPORATION) and incubated for 10 min at 37° C., with stirring at 900 r.p.m., prior to the addition of aggregating agents. Aggregation was initiated by the addition of agonists, and monitored by Aggro-Link software for at least 6 min. For experiments using inhibitors, aggregation was initiated after 10 min preincubation with these compounds
# [5] = system: platelet aggregation in human whole blood; experiment: Whole blood aggregation studies (impedance method); format: cell-based
# Experimental: A 500 μl aliquot of blood was mixed with 500 μl of physiological saline and allowed to incubate at 37° C. for 10 mins in the incubation well of a Chrono-Log Whole Blood Aggregometer model 591/592. The sample was then transferred to the assay well, baseline was established and appropriate volume of reagent as above was added. Aggregation was monitored over 6 mins with impedance output recorded on a chart recorder. When testing inhibitors whole blood was pre-incubated with appropriate concentrations of inhibitor in DMSO at 37° C. for a specified length of time before adding the stimulant (10 mins with stirring). Three different aggregating agents, AA (0.5 mM), ADP (10 μM) and Collagen (5 μg/ml) were used. […] DMSO in high concentrations (above 0.25%) can induce a concentration dependent change in platelet cytoplasmic ionised calcium. Before each experiment a control was run using PRP to obtain normal aggregating responses. A sample was also incubated for 10 min at 37° C. with 10 μl DMSO to ensure it was having no inhibitory effect on the aggregation response.
# [6] = system: collagen-induced human platelet aggregation; experiment: Collagen-induced human platelet aggregation in vitro; format: cell-based; details: listed as ISAS
# Experimental: as §1, §2
# Collagen at different concentrations (3-5 ug/ml) was also used to induce platelet aggregation. The submaximal concentrations of agonists, i.e. the concentrations that gave approximately 95% of the maximal aggregation were used to study the effects of inhibitors of aggregation. Results were expressed in percent changes in maximal light transmission, with 100% representing light transmission of platelet medium alone.
# [7] = system: esterases found in CACO-2 cells; experiment: Stability towards esterases found in CACO-2 cells; format: in vitro ADME
# in vitro = details: human, plasma, pH 7.4
compound,measurement,setting,value
"CC(=O)Oc1ccccc1C(=O)O[C@H]1CO[C@H]2[C@@H]1OC[C@H]2OC(=O)c1ccccc1O [Compound 2, Isosorbide-2-aspirinate-5-salicylate]",Drug disappearance,"[1]; 50% Rabbit Plasma, conc drug 0.1 mM",20 min
same,Drug disappearance time,"[1]; rabbit, 0.1 mM, pH 7.4",10 min
same,Drug disappearance,"[2]; HLM/isoOMPA (10 uM), conc drug […]",10 min
same,Drug disappearance,"[2]; human, 0.1 mM, pH 7.4",10 min
same,Drug disappearance,[3],5 min
same,Drug disappearance: drug left,[3]; 60 min,9.4 μM left
same,"potency relative to aspirin, inhibition of arachidonic acid-induced human platelet aggregation",[4],significantly more potent than aspirin
same,IC50,"[5]; Homo sapiens, Platelet, arachidonic acid, impedance method, read-out: IC50, platelet aggregation towards arachidonic acid in human whole blood",17 µM
same,potency in inhibition of platelet aggregation in whole blood,"[5]; all of the aggregatory stimuli: AA (0.5 mM), ADP (10 μM), Collagen (5 μg/ml)",significantly greater potency than aspirin or ISDA
same,"potency relative to aspirin, inhibition of collagen-induced human platelet aggregation",[6],significantly more potent than aspirin; also recorded: significantly more potent than ASA
same,stability towards esterases found in CACO-2 cells,[7],stable
same,half-life at 2.4 µM,in vitro,2 min
